Measured values taken from patent US20230173075A1, “ENCAPSULATED COMPOSITIONS AND USE OF OCTENYLSUCCINIC ANHYDRIDE STARCH AS EMULSIFYING AGENT” (Kansas State University Research Foundation, priority 2020, published 2023).

Tests used:
[1] = FF in a hard gelatin capsule, launched 1975; cited from earlier work
[2] = X-ray diffraction (XRD) physical state; assay type: physicochemical; conditions: Example 2 (CU), fresh
Experimental: The physical state of the spray-dried emulsions samples was obtained with an X-ray diffractometer (APD 3520, Philips, Netherlands). The instrument was operated at 35 kV, 20 mA with Cu-Kα radiation, a theta-compensating slit, and a diffracted beam monochromator. Data were recorded between the diffraction angles (2θ) of 2° and 35°. Differential scanning calorimetry (DSC) measurement of spray dried drug powder was studied with the TA instrument Q200 V24.4 (New Castle, Del., USA) in a range of −20 to 120° C. under nitrogen flow of 70 mL/min. The spray-dried emulsions powder (3-5 mg) was accurately weighed into DSC stainless steel pan. An empty pan was used as a reference. The heating rate of 10° C./min was used.
The physical state of the spray-dried emulsions samples was obtained with an X-ray diffractometer (APD 3520, Philips, Netherlands). The instrument was operated at 35 kV, 20 mA with Cu-Kα radiation, a theta-compensating slit, and a diffracted beam monochromator. Data were recorded between the diffraction angles (2θ) of 2° and 35°.

| Structure (SMILES) | maximum bioavailability [1] [%] | XRD physical state [2] |
| --- | --- | --- |
| CC(C)OC(=O)C(C)(C)Oc1ccc(C(=O)c2ccc(Cl)cc2)cc1 [FF, Fenofibrate] | 60 | – |
| COc1cc(/C=C/C(=O)CC(=O)/C=C/c2ccc(O)c(OC)c2)ccc1O [CU, Curcumin] | – | crystalline form |
